Data taken from patent US20050208058A1, “Compositions and methods for modulating cell division” (priority 2003, published 2005).
d = 2'-deoxy (DNA)

Columns and labels:
Type in all cases: cell-based, human
[1] = tested on: RPE cells; assay: Flow cytometry (FACS) of nocodazole-induced shift from G1 to G2/M peak after siRNA treatment
Description: For flow cytometry (i.e., fluorescence-activated cell sorter or FACS) experiments, siRNAs were delivered to cells as described above, and were incubated for 50-70 hours. To synchronize cells, nocodazole was added to the cells to a concentration of 5 μg/mL for 12 hours. Cells were stained with propidium iodide and analyzed by flow cytometry (FACSCAN; Becton Dickinson) using FLOJO® software (Tree Star, Inc., Ashland, Oreg.).
In another approach to evaluating the effect requirement for centrosomal gene products, fluorescence assisted cell sorting (flow cytometry or FACS) analysis was performed as described in Gromley et al., J. Cell Biol., 161:535-545 (2003). Briefly, cells were treated with indicated siRNA for at least 50-70 hours, unless otherwise indicated. Cells were synchronized by adding nocodazole to 5 μg/mL for 12 hours prior to cell collection. Cells were collected, fixed in methanol, stained with propidium iodide, and analyzed by flow cytometry (FACSCAN®;Becton Dickinson) using FLOJO® software (Tree Star, Inc.).
FIG. 3A is a graph showing the effects of depleting the indicated centrosomal gene products by siRNA treatment. The left side of the graph depicts the FACS results for treated cells before the addition of nocodazole (-noc). The major fluorescence peak in (-noc) cells is the G1 peak, (i.e., lower DNA fluorescence). The right side of the graph depicts the results for cells after nocodazole treatment (+noc). […] This may be due to inefficient silencing caused by the siRNAs used.
The ability of a number of centrosomal genes to inhibit cell cycling of RPE1 cells was tested by treating cells with siRNAs and performing FACS analysis as described in Example 2.

[2] = tested on: RPE cells; assay: BrDU incorporation after siRNA treatment and nocodazole synchronization; conditions: relative to control cells (siRNA to lamin), after nocodazole release; FIG. 2A
Description: To further study the effects of silencing centrosomal genes, the following cell cycle experiments were performed using RPE cells. In immunofluorescence experiments, cells were delivered by OLIGOFECTAMINE in a media solution containing between 1-100 nanomolar concentration of siRNAs. After 4 hours of incubation with lipofectamine, cells were washed, and cell cycle progression was assayed by (i) treating cells with 5-Bromo-2′-deoxyuridine (BrDU from Sigma, St Louis, Mo.) for 24 hours and staining for BrDU or (ii) staining cells with antibody to Ki-67 (BD Biosciences) according to manufacturer's instructions. BrDU treatment and staining were performed as follows: after 50-70 hours incubation with siRNA, BrDU was added to cells at a final concentration of 5 μg/ml. Cells were fixed in −20° C. methanol and then treated with 2N HCL at 22° C. for 30 minutes, incubated with 1:500 mouse anti-BrdU antibody (Becton Dickinson, Palo Alto, Calif.), and labeled with 1:1,000 goat FITC-mouse antibody (Molecular Probes, Inc.). Cells were also treated with 4′,6-diamidino-2-phenylindole (DAPI) (Molecular Probes) according to the manufacturer's instructions. Cells were prepared, imaged, and the resulting images were deconvolved as described in Example 1.
Upon release from nocodazole treatment, proliferating cells typically resume cell cycle progression. Chromosomal DNA in the cells was imaged using DAPI (faint ghost-like staining) and/or BrDU (brighter staining). Although DAPI can be used to visualize DNA at any stage of the cell cycle, BrDU is only incorporated into newly synthesized DNA only during S-phase. Thus, BrDU incorporation can be used as a marker of cells that progress through at least one S-phase of the cell cycle. Control cells in this experiment were treated with siRNA to lamin.

[3] = tested on: GCP2; assay: Immunofluorescence of GCP2 at the centrosome after siRNA treatment; conditions: vs siLamin; FIG. 1B
Description: To test the ability of siRNAs to silence centrosomal gene products, cells were treated with siRNAs for 24 hours. Cells were diploid, telomerase-immortalized human retinal pigment epithelial (RPE1) cells (hTERT-RPE1s from Clontech, Palo Alto, Calif.) (see Morales et al., Nat Genet, 21:115-118, 1999). siRNAs directed to δ-tubulin (SEQ ID NO:2), γ-tubulin (SEQ ID NO:4), GCP2 (SEQ ID NO:5), GCP3(SEQ ID NO:6), cNAP1 (SEQ ID NO:8), PCM1 (SEQ ID NO:9), ninein (SEQ ID NO:21), NEK2a (SEQ ID NO:10), centrin2 (SEQ ID NO:12), CDC14A (SEQ ID NO:13), gapcena (SEQ ID NO:15), nemo (SEQ ID NO:16), pericentrin (SEQ ID NO:23), lamin A/C (CUGGACUUCCAGAAGAACA, SEQ ID NO: 24) zyxin (UGUGGCUGUCAACGAACUC, SEQ ID NO:25), and p53 (GGACAAGGGUUGGGCUGGG, SEQ ID NO:26) were made as complementary single stranded 19-mer siRNAs with 3′ dTdT overhangs (Dharmacon Inc., Lafayette, Colo.), deprotected, annealed and delivered into cells using OLIGOFECTAMINE® from Invitrogen (Carlsbad, Calif.). Nucleotides were delivered in media containing up to 100 nanomolar concentrations of siRNAs. […]
FIG. 1B compares cells treated with siRNA to Lamin (siLamin, left panel) and GCP2 (siGCP2, right panel). Oval shaped fluorescence staining indicates nuclear DNA (large arrow). […]

Sequence: UCUCGUACUCCAGAAGACU (siRNA; RNA, 3' dTdT, backbone not given here) [siGCP2, siRNA directed to GCP2]
- block of nocodazole-induced shift to G2/M peak at 72 hours ([1]; 72 hours of siRNA treatment, FIG. 3B): effectively blocked the nocodazole-induced shift
- inhibition of nocodazole-induced shift from G1 peak to G2/M peak ([1]; siRNA 50-70 hours, nocodazole 5 μg/mL 12 hours, FIG. 3A, FIG. 8): prevented nocodazole-induced shift
- duration of block of nocodazole shift ([1]; time course, FIG. 3B): at least 244 hours
- time of siRNA treatment before prevention of the nocodazole shift occurs ([1]; time course, FIG. 3B): > 48 h
- incorporation of BrDU into chromosomal material [2]: clearly inhibited incorporation of BrDU
- GCP2 level in the centrosome (immunofluorescence) [3]: reduced levels of GCP2 in the centrosome
